In patent US5561117A, “Bridged bis-aryl carbinol derivatives, compositions and methods of use” (Schering Corporation, priority 1994, dated 1996):
pIC50: −log10 of the molar value.

Columns and labels:
[1] = tested on: PAF-induced platelet aggregation (human platelets); assay: In vitro platelet aggregation assay: inhibition of PAF-induced aggregation in platelet-rich plasma; assay type: cell-based; conditions: PAF-induced aggregation of human PRP, 2 min preincubation, 37° C., PAF 1-5×10^-8 M, read-out: PAF Antagonism (in vitro) IC50
Procedure: A. In Vitro Studies--Platelet Aggregation Assay
Platelet-activating factor (PAF) causes aggregation of platelets by a receptor-mediated mechanism. Therefore, PAF-induced platelet aggregation provides a simple and convenient assay to screen compounds for PAF antagonism.
Human blood (50 ml) was collected from healthy male donors in an anticoagulant solution (5 ml) containing sodium citrate (3.8%) and dextrose (2%). Blood was centriguged at 110×g for 15 min. and the supernatant platelet-rich plasma (PRP) carefully transferred into a polypropylene tube. Platelet-poor-plasma (PPP) was prepared by centrifuging PRP at 12,000×g for 2 min. (Beckman Microfuge B). PRP was used within 3 hr. of drawing the blood.
PAF was dissolved in chloroform:methanol (1:1, v/v) at a concentration of 2 mg/ml and stored at -70° C. An aliquot of this solution was transferred to a polypropylene tube and dried under a flow of nitrogen gas. To the dried sample was added Hepes-saline-BSA (BSA=bovine serum albumen) buffer (25 mM Hepes, pH 7.4, […], 0.7 mM MgCl2 and 0.1% BSA) to obtain a 1 mM solution and sonicated for 5 min. in a bath sonicator. This stock solution was further diluted to appropriate concentrations in Hepes-saline-BSA buffer. Collagen (Sigma) and adenosine diphosphate (ADP) (Sigma) were purchased as solutions. Test compounds were initially dissolved in dimethyl sulfoxide (DMSO) at a concentration of 50 mM and then further diluted in Hepes-saline-BSA buffer to achieve appropriate concentrations.
When an aggregating agent such as PAF is added to PRP, platelets aggregate. An aggregometer quantifies this aggregation by measuring and comparing light (infra-red) transmission through PPP and PRP. Aggregation assays were performed using a dual-channel aggregometer (Model 440, Chrono-Log Corp., Havertown, Pa.). PRP (0.45 ml) in aggregometer cuvettes was continually stirred (37° C.). Solutions (50 μL) of test compounds or vehicel were added to the PRP and, after incubation for 2 min., 10-15 μl aliquots of PAF solution were added to achieve a final concentration of 1-5×10^-8 M. In different experiments the aggreatory response was kept within a set limit by varying the concentration of PAF. Incubations were continued until the increase in light transmission reached a maximum (usually 2 min.). This increase in light transmission reflecting platlet aggregation is transmitted to a computer by the Chrono-Log model 810 AGGRO/LINK interface. The AGGRO/LINK calculates the slope of transmission change, thus providing the rate of aggregation. Values for inhibition were calculated by comparing rates of aggregation obtained in the absence and the presence of the compound. For each experiment, a standard PAF antagonist such as 8-chloro-6,11-dihydro-11-(1-acetyl-4-piperidylidene)-5H-benzo[5,6]cyclohepta[1,2-b]pyridine was used as a positive control. […]

PAF-induced bronchospasm = assay: Spasmogen-induced bronchospasm in guinea pigs, PAF challenge; assay type: in vivo, guinea pig (male Hartley); conditions: dose 3 mpk, PAF 0.4 μg/kg i.v., inhibition of increase in inflation pressure vs control
[2] = tested on: histamine-induced bronchospasm; assay: Spasmogen-induced bronchospasm in guinea pigs, histamine challenge; assay type: in vivo, guinea pig (male Hartley); conditions: dose 3 mpk, histamine 10 ug/kg i.v., inhibition of increase in inflation pressure vs control

Structure (SMILES): O=C(c1cc[n+]([O-])cc1)N1CCC(C2(O)c3ccccc3Oc3cnccc32)CC1 (stereo not shown) [IA-1]
- pIC50 [1]: 5.30

Structure (SMILES): O=C(c1cc[n+]([O-])cc1)N1CCC(C2(O)c3ccccc3Oc3ccccc32)CC1 [IA-2]
- pIC50 [1]: 5.30

Structure (SMILES): O=C(c1cc[n+]([O-])cc1)N1CCC(C2(O)c3ccccc3Oc3cccnc32)CC1 (stereo not shown) [IA-3]
- pIC50 [1]: 5.70
- Agonist Bronchospasm (in Vivo)-oral, PAF, % Inhibition (PAF-induced bronchospasm): 97%
- Agonist Bronchospasm (in Vivo)-oral, Histamine, % Inhibition [2]: 0%

Structure (SMILES): O=C(c1cc[n+]([O-])cc1)N1CCC(C2(O)c3ccccc3Oc3ncccc32)CC1 (stereo not shown) [IA-4]
- pIC50 [1]: 6.10

Structure (SMILES): CN1c2ccccc2C(O)(C2CCN(C(=O)c3cc[n+]([O-])cc3)CC2)c2ccccc21 [IA-5]
- pIC50 [1]: 5.30
- Agonist Bronchospasm (in Vivo)-oral, PAF, % Inhibition (PAF-induced bronchospasm): 7%

Structure (SMILES): O=C(c1cc[n+]([O-])cc1)N1CCC(C2(O)c3ccccc3Sc3ccccc32)CC1 [IA-6]
- pIC50 [1]: 5.82
- Agonist Bronchospasm (in Vivo)-oral, PAF, % Inhibition (PAF-induced bronchospasm): 20%

Structure (SMILES): O=C(c1cc[n+]([O-])cc1)N1CCC(C2(O)c3ccccc3CCc3cccnc32)CC1 (stereo not shown) [IA-8]
- pIC50 [1]: 5.70
- Agonist Bronchospasm (in Vivo)-oral, PAF, % Inhibition (PAF-induced bronchospasm): 25%

Structure (SMILES): [O-][n+]1ccc(CN2CCC(C3(O)c4ccccc4Oc4cnccc43)CC2)cc1 (stereo not shown) [IA-9]
- pIC50 [1]: < 5.00

Structure (SMILES): [O-][n+]1ccc(CN2CCC(C3(O)c4ccccc4Oc4ccccc43)CC2)cc1 [IA-10]
- pIC50 [1]: 5.00

Structure (SMILES): [O-][n+]1ccc(CN2CCC(C3(O)c4ccccc4Oc4cccnc43)CC2)cc1 (stereo not shown) [IA-11]
- pIC50 [1]: 5.30

Structure (SMILES): [O-][n+]1ccc(CN2CCC(C3(O)c4ccccc4Oc4ncccc43)CC2)cc1 (stereo not shown) [IA-12]
- pIC50 [1]: 5.52
- Agonist Bronchospasm (in Vivo)-oral, PAF, % Inhibition (PAF-induced bronchospasm): 42%
- Agonist Bronchospasm (in Vivo)-oral, Histamine, % Inhibition [2]: 0%

Structure (SMILES): [O-][n+]1ccc(CN2CCC(C3(O)c4ccccc4Sc4ccccc43)CC2)cc1 [IA-14]
- pIC50 [1]: 5.76
